Source: article PMC11369174, “Proteome-scale characterisation of motif-based interactome rewiring by disease mutations” (Molecular Systems Biology, 2024)
Where a SMILES comes first, the peptide text is derived from it. The star is where a group is joined. FITC = O=C1OC2(c3ccc(O)cc3Oc3cc(O)ccc32)c2ccc(NC(=S)*)cc21

How the values were obtained:
[1] = biological target: ABL1 SH3 (Homo sapiens, UniProt P00519); experiment: FP saturation binding, ABL1 SH3; conditions: domain titrated to 10 nM FITC-peptide, 50 mM sodium phosphate pH 7.4, 0.05% Tween, quadratic fit, technical triplets, read-out: KD [µM] + SE
[2] = biological target: T1, USP7 MATH/TRAF (Homo sapiens, UniProt Q93009); experiment: FP saturation binding, USP7 MATH/TRAF; conditions: domain titrated to 10 nM FITC-peptide, 50 mM sodium phosphate pH 7.4, 0.05% Tween, quadratic fit, technical triplets, read-out: KD [µM] + SE
[3] = biological target: KPNA4 ARM minor (Homo sapiens, UniProt O00629); experiment: FP saturation binding, KPNA4 ARM (minor); conditions: domain titrated to 10 nM FITC-peptide, 50 mM sodium phosphate pH 7.4, 0.05% Tween, quadratic fit, technical triplets, read-out: KD [µM] + SE
[4] = biological target: KPNA7 ARM (minor) (Homo sapiens, UniProt A9QM74); experiment: FP saturation binding, KPNA7 ARM (minor); conditions: domain titrated to 10 nM FITC-peptide, 50 mM sodium phosphate pH 7.4, 0.05% Tween, quadratic fit, technical triplets, read-out: KD [µM] + SE
[5] = biological target: T2, Clathrin NTD (Homo sapiens, UniProt Q00610); experiment: FP saturation binding, Clathrin NTD; conditions: domain titrated to 10 nM FITC-peptide, 50 mM sodium phosphate pH 7.4, 0.05% Tween, quadratic fit, technical triplets, read-out: KD [µM] + SE
T2 sequence (Q00610 1-364): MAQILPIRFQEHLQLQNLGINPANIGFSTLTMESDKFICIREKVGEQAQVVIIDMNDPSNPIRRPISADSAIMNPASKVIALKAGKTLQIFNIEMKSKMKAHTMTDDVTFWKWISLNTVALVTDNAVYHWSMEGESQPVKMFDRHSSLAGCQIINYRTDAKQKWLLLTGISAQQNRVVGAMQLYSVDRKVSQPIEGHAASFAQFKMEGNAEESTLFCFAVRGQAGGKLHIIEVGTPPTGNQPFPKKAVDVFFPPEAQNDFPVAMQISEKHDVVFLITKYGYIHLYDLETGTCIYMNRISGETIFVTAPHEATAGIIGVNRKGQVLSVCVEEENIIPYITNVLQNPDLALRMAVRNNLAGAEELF
Description: (§4) In order to calculate the FP signal in millipolarisation (mP), the FITC-labelled peptides were excited at 485 nm and the emitted light was measured at 535 nm in two different angles. For saturation experiments, a dilution series of the respective protein domains was generated (25 µL) and 10 nM fluorescein isothiocyanate (FITC)-labelled peptide (diluted in 50 mM sodium phosphate buffer pH 7.4, 0.05% Tween) were added in an end volume of 50 µL. A control experiment titrating GST was performed for the binding of the NEDD4 WW2 domain, since the GST-tagged construct was used for affinity measurements. For fitting the data, the buffer-corrected reduced values were plotted in GraphPad PRISM against the respective protein concentration and the KD-values were obtained by fitting against the quadratic equation (Gianni et al, [2005]).

[6] = biological target: GABARAPL1 ATG8 (Homo sapiens, UniProt Q9H0R8); experiment: FP saturation binding, GABARAPL1 ATG8; conditions: domain titrated to 10 nM FITC-peptide, 50 mM sodium phosphate pH 7.4, 0.05% Tween, quadratic fit, technical triplets, read-out: KD [µM] + SE
[7] = biological target: T3, GGA1 VHS (Homo sapiens, UniProt Q9UJY5); experiment: FP saturation binding, GGA1 VHS; conditions: domain titrated to 10 nM FITC-peptide, 50 mM sodium phosphate pH 7.4, 0.05% Tween, quadratic fit, technical triplets, read-out: KD [µM] + SE
T3 sequence (Q9UJY5 1-157): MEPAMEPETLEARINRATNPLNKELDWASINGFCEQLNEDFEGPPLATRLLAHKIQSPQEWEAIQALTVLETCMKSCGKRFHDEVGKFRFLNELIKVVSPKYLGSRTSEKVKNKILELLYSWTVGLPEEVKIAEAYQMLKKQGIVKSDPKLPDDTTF

[8] = biological target: CREBBP KIX (Homo sapiens, UniProt Q92793); experiment: FP saturation binding, CREBBP KIX; conditions: domain titrated to 10 nM FITC-peptide, 50 mM sodium phosphate pH 7.4, 0.05% Tween, quadratic fit, technical triplets, read-out: KD [µM] + SE
[9] = biological target: NEDD4 WW2 (Homo sapiens, UniProt P46934); experiment: FP saturation binding, NEDD4 WW2; conditions: GST-tagged construct, domain titrated to 10 nM FITC-peptide, 50 mM sodium phosphate pH 7.4, 0.05% Tween, quadratic fit, technical triplets, read-out: KD [µM] + SE
Description: as §4

[10] = biological target: T4, MAP1LC3A ATG8 (Homo sapiens, UniProt Q9H492); experiment: FP displacement assay, MAP1LC3A ATG8; format: binding; conditions: read-out: KD-values [µM] + SEM
Description: (§5) FP experiments were performed, as previously described (Kliche et al, [2021], [2023]), on an iD5 plate reader (Molecular devices) using black half-area non-binding 96-well plates (Corning). In order to calculate the FP signal in millipolarisation (mP), the FITC-labelled peptides were excited at 485 nm and the emitted light was measured at 535 nm in two different angles. For saturation experiments, a dilution series of the respective protein domains was generated (25 µL) and 10 nM fluorescein isothiocyanate (FITC)-labelled peptide (diluted in 50 mM sodium phosphate buffer pH 7.4, 0.05% Tween) were added in an end volume of 50 µL. […] For fitting the data, the buffer-corrected reduced values were plotted in GraphPad PRISM against the respective protein concentration and the KD-values were obtained by fitting against the quadratic equation (Gianni et al, [2005]).
(§6) The buffer-corrected reduced values were subsequently plotted against the logarithmic unlabelled peptide concentration to derive the IC50 values by using the sigmoidal dose-response (x is logarithmic) fit in GraphPad PRISM and calculate the KD values as described previously (Nikolovska-Coleska et al, [2004]).

[11] = biological target: T4, MAP1LC3A ATG8; experiment: GenVar_HD2 ProP-PD phage selection, MAP1LC3A ATG8; conditions: bait MAP1LC3A ATG8; from NGS counts of overlapping wild-type/mutant library peptide pairs; positive = mutation enhances, negative = disrupts binding
Description: (§1) Phage display screens were performed according to previous reports (Benz et al, [2022]; Ali et al, [2020]) and for four consecutive selection rounds with five to six replicates per bait protein domain against the […] library.
(§2) On the first day, both bait (15 µg in 100 µL PBS) and control protein domains (GST and MBP; 10 µg in 100 µL PBS) were immobilised on a 96-well MaxiSorb plate (Nunc) overnight in the cold room while shaking. Additionally, a 10 mL culture of Omnimax E. coli bacteria supplemented with 10 µg/mL tetracycline was incubated overnight at 37 °C at 200 rpm.
(§3) First, protein solutions were removed from both control and bait protein domain plates and the wells were blocked with 0.5% BSA in PBS (200 µL/well) for 1 h in the cold room while shaking. After that, three Omnimax E. coli cultures were started supplemented with either 30 µg/mL kanamycin, 100 µg/mL carbenicillin and 10 µg/mL tetracycline and incubated at 37 °C and 200 rpm. The two first cultures served as a means to check for helper phage contamination (kanamycin) and phages with library phagemid contamination (carbenicillin) of the culture used for elution of the phages during selections. The tetracycline Omnimax E. coli culture was grown until OD at 600 nm reached 0.6–0.8. […]

[12] = biological target: T1, USP7 MATH/TRAF; experiment: FP displacement assay, USP7 MATH/TRAF; format: binding; conditions: read-out: KD-values [µM] + SEM
Description: as §5, §6

[13] = biological target: T1, USP7 MATH/TRAF; experiment: GenVar_HD2 ProP-PD phage selection, USP7 MATH/TRAF; conditions: bait USP7 MATH/TRAF; from NGS counts of overlapping wild-type/mutant library peptide pairs; positive = mutation enhances, negative = disrupts binding
Description: as §1, §2, §3

[14] = biological target: T3, GGA1 VHS; experiment: GenVar_HD2 ProP-PD phage selection, GGA1 VHS; conditions: bait GGA1 VHS; from NGS counts of overlapping wild-type/mutant library peptide pairs; positive = mutation enhances, negative = disrupts binding
Description: as §1, §2, §3

T1 sequence (Q93009 53-206): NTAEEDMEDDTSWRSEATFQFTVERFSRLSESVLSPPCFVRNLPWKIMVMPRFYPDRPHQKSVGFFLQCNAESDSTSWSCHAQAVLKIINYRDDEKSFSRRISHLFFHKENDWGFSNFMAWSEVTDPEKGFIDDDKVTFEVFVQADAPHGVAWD
Sequence of GABARAPL1 ATG8 (Q9H0R8 2-115): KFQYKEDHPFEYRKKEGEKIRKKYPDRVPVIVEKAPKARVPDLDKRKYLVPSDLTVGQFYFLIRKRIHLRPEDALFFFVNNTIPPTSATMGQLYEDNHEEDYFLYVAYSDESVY
Sequence of KPNA4 ARM minor (O00629 68-487): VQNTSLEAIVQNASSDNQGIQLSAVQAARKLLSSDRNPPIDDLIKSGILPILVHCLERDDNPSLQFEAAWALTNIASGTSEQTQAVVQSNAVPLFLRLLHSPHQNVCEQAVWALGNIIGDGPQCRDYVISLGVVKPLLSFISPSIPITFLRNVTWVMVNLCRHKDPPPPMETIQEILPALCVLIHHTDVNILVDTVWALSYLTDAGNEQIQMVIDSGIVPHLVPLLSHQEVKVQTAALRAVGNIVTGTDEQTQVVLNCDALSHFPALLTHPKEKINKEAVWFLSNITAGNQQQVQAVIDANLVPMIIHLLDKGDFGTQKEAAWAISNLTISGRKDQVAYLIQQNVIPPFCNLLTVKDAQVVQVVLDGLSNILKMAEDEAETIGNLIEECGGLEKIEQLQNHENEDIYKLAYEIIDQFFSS
Sequence of NEDD4 WW2 (P46934 765-803 limits assumed): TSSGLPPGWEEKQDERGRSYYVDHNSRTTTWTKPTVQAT
Sequence of KPNA7 ARM (minor) (A9QM74 58-488 limits assumed): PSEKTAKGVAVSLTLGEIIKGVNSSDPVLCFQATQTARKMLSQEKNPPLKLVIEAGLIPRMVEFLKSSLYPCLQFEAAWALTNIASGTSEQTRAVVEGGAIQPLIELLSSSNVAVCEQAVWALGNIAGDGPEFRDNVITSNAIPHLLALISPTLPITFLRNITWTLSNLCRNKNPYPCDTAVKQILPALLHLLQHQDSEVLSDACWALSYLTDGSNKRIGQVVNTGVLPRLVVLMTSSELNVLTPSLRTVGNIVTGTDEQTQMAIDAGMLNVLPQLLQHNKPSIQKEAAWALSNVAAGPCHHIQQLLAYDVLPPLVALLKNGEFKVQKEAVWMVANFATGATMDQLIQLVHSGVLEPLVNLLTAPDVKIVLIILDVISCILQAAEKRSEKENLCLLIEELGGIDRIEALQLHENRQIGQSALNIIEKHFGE
Sequence of CREBBP KIX (Q92793 587-673): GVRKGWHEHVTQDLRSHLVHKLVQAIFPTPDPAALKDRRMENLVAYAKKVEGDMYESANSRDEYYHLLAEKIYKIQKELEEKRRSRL
Sequence of ABL1 SH3 (P00519 60-121): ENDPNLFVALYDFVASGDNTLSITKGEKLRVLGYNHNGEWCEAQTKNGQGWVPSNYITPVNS

Work on `CC(C)[C@H](NC(=O)[C@@H]1CCCN1C(=O)[C@@H]1CCCN1C(=O)[C@@H]1CCCN1C(=O)[C@@H]1CCCN1C(=O)[C@H](Cc1ccc(O)cc1)NC(=O)[C@H](C)NC(=O)[C@@H]1CCCN1C(=O)[C@@H]1CCCN1C(=O)[C@H](Cc1c[nH]cn1)NC(=S)Nc1ccc2c(c1)C(=O)OC21c2ccc(O)cc2Oc2cc(O)ccc21)C(=O)N1CCC[C@H]1C(=O)N[C@H](C(N)=O)[C@@H](C)O` [FITC-3BP2] ({FITC}-HPPAYPPPPVPT-NH2) yielded a Kd [1] of 3.7 ± 0.4 µM.

Work on `CC[C@H](C)[C@H](NC(=O)[C@H](CO)NC(=O)[C@H](CO)NC(=O)[C@H](CO)NC(=O)[C@@H](NC(=O)[C@H](CO)NC(=O)[C@@H]1CCCN1C(=O)[C@H](CCC(N)=O)NC(=O)[C@H](CO)NC(=O)[C@H](Cc1ccc(O)cc1)NC(=O)[C@H](CC(=O)O)NC(=S)Nc1ccc2c(c1)C(=O)OC21c2ccc(O)cc2Oc2cc(O)ccc21)[C@@H](C)O)C(=O)N[C@H](C(=O)N[C@@H](Cc1ccc(O)cc1)C(=O)O)[C@@H](C)CC` [FITC-MDM2] ({FITC}-DYSQPSTSSSIIY-OH) yielded a Kd [2] of 0.5 ± 0.03 µM.

`CC[C@H](C)[C@H](NC(=O)[C@H](C)NC(=O)[C@H](CCCNC(=N)N)NC(=O)CNC(=O)[C@@H](NC(=O)[C@H](CCCNC(=N)N)NC(=O)CNC(=O)[C@H](CCC(=O)O)NC(=O)[C@H](CCSC)NC(=O)[C@H](CCSC)NC(=O)[C@H](CC(=O)O)NC(=O)[C@H](Cc1ccc(O)cc1)NC(=O)[C@@H](NC(=O)[C@H](CCCNC(=N)N)NC(=O)[C@H](CCCCN)NC(=O)[C@@H]1CCCN1C(=S)Nc1ccc2c(c1)C(=O)OC21c2ccc(O)cc2Oc2cc(O)ccc21)[C@@H](C)O)C(C)C)C(N)=O` [FITC-NCOR2] ({FITC}-PKRTYDMMEGRVGRAI-NH2) was tested, and the Kd [3] was 0.03 ± 0.002 µM and the Kd [4] was 57 ± 9 µM.

Compound `CC[C@H](C)[C@H](NC(=O)[C@H](CC(C)C)NC(=O)[C@H](CC(=O)O)NC(=O)[C@@H](NC(=O)[C@H](CO)NC(=S)Nc1ccc2c(c1)C(=O)OC21c2ccc(O)cc2Oc2cc(O)ccc21)C(C)C)C(=O)N[C@H](C(=O)N[C@@H](Cc1ccccc1)C(=O)N[C@@H](CC(=O)O)C(=O)N[C@@H](CO)C(=O)N[C@H](C(N)=O)C(C)C)[C@@H](C)O` [FITC-NSP3] ({FITC}-SVDLITFDSV-NH2) has a Kd [5] of 21 ± 3 µM.

With `CC(C)C[C@H](NC(=O)[C@H](Cc1c[nH]cn1)NC(=O)[C@@H](NC(=O)[C@H](Cc1c[nH]c2ccccc12)NC(=O)[C@H](CC(=O)O)NC(=O)[C@H](CC(=O)O)NC(=O)[C@H](CC(=O)O)NC(=S)Nc1ccc2c(c1)C(=O)OC21c2ccc(O)cc2Oc2cc(O)ccc21)[C@@H](C)O)C(=O)N[C@@H](CO)C(=O)N[C@@H](CO)C(=O)N[C@@H](CCCCN)C(N)=O` [FITC-SQSTM1] the Kd [6] was 3.7 ± 0.4 µM.

Compound `CC[C@H](C)[C@H](NC(=O)[C@H](CC(=O)O)NC(=O)[C@H](CC(C)C)NC(=O)[C@H](CC(C)C)NC(=O)[C@H](CC(=O)O)NC(=O)[C@H](CCC(=O)O)NC(=O)[C@H](CC(=O)O)NC(=O)[C@H](CCC(=O)O)NC(=O)[C@H](CC(=O)O)NC(=S)Nc1ccc2c(c1)C(=O)OC21c2ccc(O)cc2Oc2cc(O)ccc21)C(=O)N[C@@H](CCC(=O)O)C(=O)N[C@@H](CC(=O)O)C(N)=O` [FITC-STK11_mut] ({FITC}-DEDEDLLDIED-NH2) has a Kd [7] of 14.1 ± 0.7 µM.

`CC(C)C[C@H](NC(=O)[C@H](CC(C)C)NC(=O)[C@H](CC(=O)O)NC(=O)[C@H](CO)NC(=O)[C@H](CC(C)C)NC(=O)[C@H](CCC(=O)O)NC(=O)[C@H](CCCCN)NC(=O)[C@H](CC(=O)O)NC(=S)Nc1ccc2c(c1)C(=O)OC21c2ccc(O)cc2Oc2cc(O)ccc21)C(=O)N[C@@H](CC(=O)O)C(=O)N[C@@H](Cc1ccccc1)C(=O)N[C@@H](CO)C(N)=O` [FITC-TCF3] ({FITC}-DKELSDLLDFS-NH2) was tested, and the Kd [8] was 35 ± 4 µM.

`C[C@H](NC(=O)[C@H](CO)NC(=O)[C@H](Cc1ccc(O)cc1)NC(=O)[C@@H]1CCCN1C(=O)[C@@H]1CCCN1C(=O)[C@@H]1CCCN1C(=O)[C@H](CO)NC(=O)[C@H](CC(=O)O)NC(=O)[C@@H](NC(=S)Nc1ccc2c(c1)C(=O)OC21c2ccc(O)cc2Oc2cc(O)ccc21)[C@@H](C)O)C(=O)NCC(=O)O` [FITC-UL56(HHV-2)] ({FITC}-TDSPPPYSAG-OH) gave a Kd [9] of 4.1 ± 0.3 µM.

With “Ac-QTKWELLQQVDTSTRT-NH2 [KRT1_209-224 wild-type]” the Kd [10] was 55 ± 5 µM.

“Ac-QTKWEPLQQVDTSTRT-NH2 [KRT1_209-224 L214P]” gave a Mutation enrichment score [11] of −6.

Work on “Ac-YISSSSTSTMPNSSKSS-NH2 [CHK2_38-53 Q51K]” yielded a Kd [12] of 4.7 ± 0.3 µM and a Mutation enrichment score [13] of −6.

Work on “Ac-YQQELDHLLVDLDHQR-NH2 [MYH9_1419-1433 D1424H]” yielded a Mutation enrichment score [14] of −10.
